Experimental data taken from US12006330B2, “Substituted macrocyclic compounds and related methods of treatment” (Alkermes, Inc., priority 2020, dated 2024).

Assays:
[1] = Hepatocytes stability assay (human hepatocytes); assay type: in vitro ADME; conditions: both sexes, human, cryopreserved hepatocytes, cryopreserved human hepatocytes (pool of 50 mixed gender); 1 μM test compound; 1×10^6 cell/mL; 37 degrees C; read-out: CLint (μL/min/million cells)
Summary of the method: (§1)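 Compound at 1 μM (0.1% DMSO) was incubated with cryopreserved pooled human hepatocytes, 1×10^6 cells/mL in Krebs-Henseleit buffer, at 37 °C, sampled up to 240 min. Parent depletion by LC-MS/MS; half-life from first-order decay gave CLint, scaled to hepatic clearance by well-stirred model (fu assumed 1) and extraction ratio.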

human hepatocytes = experiment: Hepatocytes stability assay (human hepatocytes); assay type: in vitro ADME; conditions: human hepatocytes; scaled hepatic clearance divided by liver blood flow (well-stirred model, fu assumed unity)
Summary of the method: as §1

Sprague-Dawley rats = experiment: Assessment of wake promotion in Sprague-Dawley rats (EEG/EMG); assay type: in vivo, rat; conditions: male Sprague-Dawley rats; PO; 3 mpk; dosed at ZT5; 6-hour post-dose period
Experimental: Wake promotion was assessed using electroencephalography (EEG) and electromyography (EMG) in adult male Sprague-Dawley rats. All rats (Charles River Laboratories, Raleigh, NC, USA) were intraperitoneally implanted with telemetry devices (F50-EEE, Data Sciences International Inc., MN, USA) under isoflurane anesthesia. For EEG, stainless steel screws were implanted over frontal cortex and parietal cortex, and reference screws were placed over cerebellum. Additionally, an electrode was placed in neck muscle for EMG. Rats were given carprofen post-surgery and underwent a 7 to 10-day recovery period. Rats habituated to the experimental room for 7 days and were maintained on a 12-hour light-dark cycle.
EEG and EMG data were recorded using the DSI telemetry system and Ponemah software (Data Sciences International Inc., MN, USA). Sleep-wake stages were scored both manually and with Somnivore, a supervised machine learning software platform, in 10 second epochs. Records were visually inspected as needed post-processing.
All test compounds were dissolved in 5% DMSO and suspended in 95% saline with 0.5% methylcellulose and 0.5% tween. […] Unless otherwise indicated, all compounds were dosed orally. Recordings for each rat were initiated immediately after dosing and lasted for 6 hours post-dose.
Two key endpoints include wakefulness time and cortical activation time. Wakefulness time is derived from the sleep-wake stage analysis. Cortical activation time is based on the duration in which frontal gamma oscillatory activity (30-100 Hz), a key feature of wakefulness, was elevated relative to a pre-treatment baseline. Mean cortical activation time was computed relative to vehicle treatment for the 6-hour post-dose period.

MDR1 = experiment: MDCK-MDR1 permeability assay; assay type: in vitro ADME; conditions: dog, MDCK-MDR1, MDCK-MDR1 cells; for efflux ratio at 2 h, 3 μM: Papp B→A divided by Papp A→B, read-out: Efflux ratio (ER); for Papp A→B at 2 h, 3 μM: test compound 3 μM, 2 hours at 37 degrees C, apical to basolateral
Summary of the method: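 Receiver and donor compartments were analysed by LC-MS/MS after a 2 h incubation at 37 °C of 3 μM compound in HBSS on MDCK-MDR1 monolayers, run in both directions with Lucifer Yellow (100 μM) as integrity marker. Apparent permeability came from translocation rate, insert area and initial concentration; B→A/A→B Papp gave the efflux ratio, alongside percent recovery.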

[2] = biological target: T1, human orexin-2 receptor (OX2R) (Homo sapiens, UniProt O43614); experiment: Human OX2R IP1 assay; assay type: cell-based; conditions: T-Rex CHO cells stably overexpressing human OX2R; IP1 accumulation; 1 hr at 37 degrees C; mean EC50
T1 construct: expressed in transfected cells
T1 sequence (O43614 1-444): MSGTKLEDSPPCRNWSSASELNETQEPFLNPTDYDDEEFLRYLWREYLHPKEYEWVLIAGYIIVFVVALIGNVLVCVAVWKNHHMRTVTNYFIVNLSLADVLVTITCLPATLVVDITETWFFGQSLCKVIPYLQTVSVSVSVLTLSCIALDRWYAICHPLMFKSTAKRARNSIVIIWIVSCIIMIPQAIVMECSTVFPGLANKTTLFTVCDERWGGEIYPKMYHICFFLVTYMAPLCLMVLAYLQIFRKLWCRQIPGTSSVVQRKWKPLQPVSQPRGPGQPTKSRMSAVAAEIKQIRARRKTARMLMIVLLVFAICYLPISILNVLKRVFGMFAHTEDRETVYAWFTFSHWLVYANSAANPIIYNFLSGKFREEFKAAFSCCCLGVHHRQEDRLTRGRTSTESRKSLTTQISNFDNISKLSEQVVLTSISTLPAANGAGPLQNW
Summary of the method: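 T-Rex CHO cells stably expressing human OX2R, doxycycline-induced (1 μg/mL) overnight, treated with compounds 1 h at 37 °C in pH 7.4 buffer with 50 mM LiCl. IP1 accumulation read by HTRF competitive immunoassay after 1 h at room temperature; agonist EC50 reported as mean ± S.E.M.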

Row | Compound | hepatocyte CLint at 1 μM [1] [µL/min/1e6 cells] | Extraction Ratio (ER) (human hepatocytes) | Mean cortical activation time (% vehicle treatment) (Sprague-Dawley rats) | efflux ratio at 2 h, 3 μM (MDR1) | Papp A→B at 2 h, 3 μM (MDR1) [×10⁻⁶ cm/s] | EC50 [2] [nM]
1 | O=C1COc2nccnc2[C@H]2CC[C@H](CC2)OCC2[C@@H](NS(=O)(=O)C3CC3)CCCN12 (stereo in doubt) [Compound 65] | < 1.9 | <0.22 | 121.28 | > 100 | 0.1 | –
2 | O=C1COc2ccccc2C2CCC(CC2)OC[C@H]2[C@@H](NS(=O)(=O)C(F)(F)F)CCCN12 (stereo in doubt) [Compound 11] | 4.2 | 0.38 | 411.43 | 52 | 1.6 | –
3 | Cc1ccc2c(c1)C1CCC(CC1)OC[C@H]1[C@@H](NS(C)(=O)=O)CCCN1C(=O)CO2 (stereo in doubt) [Compound 17] | 7.5 | 0.53 | 212.31 | 40 | 0.84 | –
4 | Cc1ccnc2c1C1CCC(CC1)OC[C@H]1[C@@H](NS(C)(=O)=O)CCCN1C(=O)CO2 (stereo in doubt) [Compound 12] | 9.7 | 0.59 | 108.70 | 74 | 0.49 | –
5 | CC(C)S(=O)(=O)N[C@H]1CCCN2C(=O)COc3nccnc3[C@H]3CC[C@H](CC3)OCC12 (stereo in doubt) [Compound 66] | < 1.9 | <0.22 | 141.30 | 88 | 0.22 | –
6 | CS(=O)(=O)N[C@H]1CCCN2C(=O)[C@H](CO)Oc3ccccc3[C@H]3CC[C@H](CC3)OCC12 (stereo in doubt) [Compound 61] | 6.9 | 0.51 | – | > 100 | < 0.034 | < 10
7 | CC[C@H](C)S(=O)(=O)N[C@H]1CCCN2C(=O)COc3ccccc3C3CCC(CC3)OC[C@@H]12 (stereo in doubt) [Compound 21] | 36 | 0.84 | – | 52 | 0.8 | < 10
8 | CC[C@H]1Oc2ccccc2[C@H]2CC[C@H](CC2)OCC2[C@@H](NS(C)(=O)=O)CCCN2C1=O (stereo in doubt) [Compound 85] | 37 | 0.84 | – | 97 | 0.45 | < 10
9 | O=C1COc2ccccc2[C@H]2CC[C@H](CC2)OCC2[C@@H](NS(=O)(=O)C3CCOC3)CCCN12 (stereo in doubt) [Compound 22] | 13 | 0.66 | – | > 100 | 0.18 | < 10
10 | CC[C@@H]1Oc2ccccc2[C@H]2CC[C@H](CC2)OCC2[C@@H](NS(C)(=O)=O)CCCN2C1=O (stereo in doubt) [Compound 84] | 31 | 0.82 | – | 100 | 0.43 | < 10
11 | C[C@@H]1C[C@H](NS(C)(=O)=O)[C@@H]2CO[C@H]3CC[C@H](CC3)c3ccccc3OCC(=O)N12 [Compound 103] | 41 | 0.86 | – | 28 | 1.4 | 10 to 1000
12 | C[C@@H]1CCN2C(=O)COc3ccccc3[C@H]3CC[C@H](CC3)OCC2[C@H]1NS(C)(=O)=O (mixture of isomers) [Compound 36] | 17 | 0.71 | – | > 100 | 0.3 | < 10
